Source: patent publication US6436997B1, “Endogenous nitric oxide synthesis under conditions of low oxygen tension” (NitroMed, Inc., priority 1998, dated 2002)

Columns and labels:
[1] = test system: rabbit corpus cavernosum tissue; test: cGMP production (basal and acetylcholine stimulated) by corpus cavernosum tissue strips, ELISA; assay type: cell-based; settings: for basal cGMP production: normoxic (20% O2), vs vehicle control, FIG. 1; for cGMP concentration in acetylcholine stimulated tissue compared to basal values (ACh alone): 300 μM test drug + 30 μM ACh, under normoxia (20% O2) and hypoxia (0% O2), FIGS. 2A/2B
Protocol: (§1) Rabbits were euthanized with an overdose of intravenous pentobarbital (60 mg/kg) and immediately exsanguinated. The entire penis was then removed and the corpus cavernosum tissue dissected free from the surrounding tunica albuginea and cut into strgips (3×3×7 mm). Corpus cavernosum tissues were maintained at 4-6° C. in M-400 solution (composition per 100 ml: mannitol, 4.19 g; KH2PO4, 0.205 g; K2HPO4.3H2O, 0.97 g; KCl, 0.112 g; NaHCO3, 0.084 g) until used. Corpus cavernosum tissues were typically used between 2 and 16 hrs from extraction.
Measurement of cyclic GMP in corpus cavernosal tissues was carried out as follows. Corpus cavernosal tissue strips were immersed in a 10 ml organ chamber containing physiological salt solution, maintained at 37° C. and aerated with 5% CO2/95% air, pH 7.4. Each strip was incrementally stretched to optimal isometric tension, as determined by maximal contractile responses to 1 μM phenylephrine ((R)-3-hydroxy-α-[(methylamino)methyl]-benzenemethanol hydrochloride). The physiological salt solution was then replaced with one bubbled with either 20% oxygen or 0% oxygen and the tissues were then given 0.5 μM phenylephrine, 30 μM Zaprinast and 100 μM IBMX (3-isobutyl-1-methylxanthine, […]) and incubated for 15 minutes; after which time each tissue was incubated with the test drug (or control drug) at various concentrations or with vehicle (the buffer in which the drugs are delivered). Tissues were incubated for another 5 minutes then immediately frozen in liquid nitrogen and stored at −80° C. until extraction for cyclic nucleotide assay. Tissues were extracted by homogenization in 6% trichloroacetic acid followed by ether (H2O-saturated) extraction and lyophilization. cGMP levels were determined by ELISA using a kit from Cayman Chemical Co. (Ann Arbor, Mich.).
Protein concentration in the corpus cavernosum tissue was determined using the Bio-Rad Protein Assay Kit microtiter plate assay procedure (Bio-Rad, Hercules, Calif.) with bovine serum albumin as the standard.

rat aortic segments = test: Relaxation of norepinephrine-contracted rat aortic segments from non-diabetic and diabetic rats; assay type: cell-based; settings: for effect on acetylcholine induced relaxation of aorta segments / effect on acetylcholine induced relaxation of aortic rings: 10 μM test drug, 10 nM-10 μM ACh, normoxia; for effect on acetylcholine induced relaxation of aorta segments: diabetic rats, FIG. 10B; for effect on acetylcholine induced relaxation of aortic rings: non-diabetic rats, FIG. 10A
Protocol: Diabetes was induced in rats by the administration of a single injection of steptozotocin (60 mg/kg; i.p). Diabetic rats remained untreated for a total of 8 weeks. […] Rats were anesthetized with diethyl ether and exsanguinated. The thoracic aorta was then removed and the tissue dissected free from the surrounding periadventitial fat and connective tissue, taking precautions to avoid touching the luminal surface. The tissue was cut into 8 segments, each approximately 3-4 mm in length. Rat aortic segments were maintained at 4-6° C. Krebs-bicarbonate buffer (composition per millimolar: NaCl, 120; KCl, 5.6; MgCl2, 1.2; NaH2PO4, 1.2; dextrose, 10; NaHCO3, 25; CaCl2 2.5; pH 7.4) until used. Aortic segments were typically used between 2 and 16 hrs from extraction. […] Each aortic tissue strip was submitted to 1.5 g of resting tension. […] The aortic segments were then contracted with submaximal concentration of norepinephrine and the contraction as allowed to reach a steady state level. Once a steady state of muscle tension was reached, the tissue was exposed to various concentrations of test compounds and the relaxation responses were recorded. Relaxation responses were expressed as a percentage of total relaxation induced by a supramaximal addition of papaverine (total loss of tone) at the end of the experiment. In FIGS. 7-12, the data are expressed as mean±standard mean error.

[2] = test system: left hindlimb of autoperfused non-diabetic or diabetic rats; test: Vasoactive response (hindlimb perfusion pressure) of anesthetized autoperfused rats; assay type: in vivo, rat; settings: bolus infusion 0.1-10 mg/kg, pressure elevated by norepinephrine 2 μg/min/kg, FIGS. 12A/12B
Protocol: The left hindlimb of the anesthetized rats were perfused through the femoral artery at a constant rate of 3.3 ml/min/kg with blood from the carotid artery by means of a peristaltic pump. The vasoactive response induced by the bolus infusion of increasing concentrations of L-arginine or N-hydroxy-L-arginine into the left hindlimb of autoperfused non-diabetic or diabetic rats was determined by measuring the change in the perfusion pressure, which was previously elevated by a norepinephrine constant infusion (2 μg/min/kg).

[3] = test system: rabbit corpus cavernosum tissue; test: Relaxation of phenylephrine-contracted corpus cavernosum tissue strips in organ chambers; assay type: cell-based; settings: for effect on N-hydroxy-L-arginine induced relaxation / effect on hydroxylamine induced relaxation: 20% O2; for effect on hydroxylamine induced relaxation: increasing hydroxylamine
Protocol: as §1
Corpus cavernosum tissue was prepared as described in Example 1. For experimentation to measure relaxation of the tissue under various conditions, the corpus cavernosum tissues were then suspended in 10 ml organ chambers and bathed in a physiological salt solution, maintained at 37° C. and aerated with 5% CO2/95% air, pH 7.4. Each corpus cavernosum tissue strip was incrementally stretched to optimal isometric tension as determined by the maximal contractile response to 1 μM phenylephrine. After several exchanges of fresh physiological solution, the media was bubbled with gas mixtures containing 5% CO2, the indicated amount of oxygen (between 0% and 20%) and the remaining percentage was N2, for thirty minutes. Corpus cavernosum tissues were then contracted with a submaximal concentration of phenylephrine, and the contraction was allowed to reach a steady state level. Once a steady state of muscle tension was reached, the tissue was exposed to various concentrations of test compounds, and the relaxation responses were recorded. Relaxation responses were expressed as a percentage of total relaxation induced by a supramaximal addition of papaverine (total loss of tone) at the end of the experiment. The data in FIGS. 3-6 are expressed as mean±standard mean error

[4] = estimated; cited from earlier work
[5] = 0.1 mM L-NNA or 0.02 mM ODQ, increasing N-hydroxy-L-arginine, FIG. 4A
[6] = 0.1 mM L-NNA or 0.02 mM ODQ, FIG. 4B

NC(=NCCC[C@H](N)C(=O)O)NO [N-hydroxy-L-arginine, N^G-hydroxy-L-arginine]
basal cGMP production ([1]; 30 μM test drug): stimulated cGMP production approximately equally
cGMP concentration in acetylcholine stimulated tissue compared to basal values (ACh alone) [1]: statistically significant increase in the concentration of cGMP
basal cGMP production ([1]; 300 μM test drug): effective to stimulate a higher concentration of cGMP production
induced relaxation, diabetic versus non-diabetic aortic segments (rat aortic segments; 1 μM, 95% O2, FIG. 8): more effective in inducing the relaxation of aortic segments obtained from diabetic rats
effect on acetylcholine induced relaxation of aorta segments (rat aortic segments): increased the relaxation
effect on acetylcholine induced relaxation of aortic rings (rat aortic segments): do not effect the relaxation of aortic rings
induced relaxation of aortic segments compared with L-arginine (rat aortic segments; 95% O2, 100 nM-100 μM, non-diabetic and diabetic rats, FIGS. 7A/7B): more effective in inducing relaxation in both non-diabetic and diabetic rats
change in hindlimb perfusion pressure, non-diabetic versus diabetic rats [2]: no difference in the perfusion pressure
tissue relaxation at 1 mM ([3]; all oxygen concentrations (0%, 1%, 2%, 5%, 20%), FIG. 6): significant relaxation of the tissue

Clc1ccc(COC(Cn2ccnc2)c2ccc(Cl)cc2Cl)c(Cl)c1 (stereo not drawn) [miconazole]
effect on N-hydroxy-L-arginine induced relaxation ([3]; 0.1 mM miconazole, increasing N-hydroxy-L-arginine 1-1000 μM, FIG. 3): does not significantly effect the relaxation of the tissues

[N]=O [nitric oxide]
half-life in biological tissues [4]: less than one second

COC(=O)[C@@H](N)CCCNC(=N)N[N+](=O)[O-] [L-NAME, N^G-nitro-L-arginine methyl ester]
effect on N-hydroxy-L-arginine induced relaxation of aorta segments (rat aortic segments; 10 μM inhibitor, normoxic, non-diabetic and diabetic rats, FIGS. 9A/9B): significantly decreased the measured relaxation

N=C(N)NCCC[C@H](N)C(=O)O [L-arginine]
cGMP concentration in acetylcholine stimulated tissue compared to basal values (ACh alone) [1]: not effective to statistically increase the concentration of cGMP
basal cGMP production ([1]; 300 μM test drug): stimulated cGMP production approximately equally
effect on acetylcholine induced relaxation of aorta segments (rat aortic segments): resulted in a decreased relaxation
effect on acetylcholine induced relaxation of aortic rings (rat aortic segments): do not effect the relaxation of aortic rings
change in hindlimb perfusion pressure, non-diabetic versus diabetic rats [2]: the pressure change was greater for the non-diabetic rats compared to diabetic rats
tissue relaxation at 1 mM ([3]; oxygen concentrations of 0%, 1%, 2% and 5% (data not shown)): no measurable effect on tissue relaxation

O=c1onc2cnc3ccccc3n12 [ODQ, 1H-[1,2,4]oxadiazolo[4,3,a]quinoxalin-1-one]
effect on N-hydroxy-L-arginine induced relaxation [3, 5]: significantly decreased the measured relaxation
effect on hydroxylamine induced relaxation [3, 6]: significantly decreased the relaxation

NO [hydroxylamine]
relaxation of corpus cavernosum tissue by the substance itself ([3]; 20% O2, 1 nM to 1000 μM, FIG. 4B): induces the relaxation of the tissue

N=C(NCCC[C@H](N)C(=O)O)N[N+](=O)[O-] [L-NNA, N^G-nitro-L-arginine]
effect on N-hydroxy-L-arginine induced relaxation ([3]; 0.1 mM L-NNA added together with 0.1 mM miconazole, FIG. 3): does decrease the effectiveness of N-hydroxy-L-arginine to relax the tissue
effect on N-hydroxy-L-arginine induced relaxation [3, 5]: significantly decreased the measured relaxation
effect on hydroxylamine induced relaxation [3, 6]: had no effect
